Measurements: patent US6989397B1, “Iron chelators and uses thereof” (University of Queensland, priority 1999, dated 2006)
Each block holds one molecule with its values, some of them ahead of it.

Key:
[1] = tested on: iron-regulatory proteins (IRPs); assay: iron regulatory protein gel-retardation assay (IRP-RNA binding activity); format: cell-based, human; conditions: SK-N-MC cells, 20 hr incubation; chelators 25 μM, DFO 100 μM, FAC 100 μg/ml
Experimental: FIG. 5. The effect of the chelators on the RNA-binding activity of the iron-regulatory proteins (IRPs) in the SK-N-MC neuroepithelioma cells. Cells were incubated for 20 h with either medium alone (control), ferric ammonium citrate (FAC: 100 μg/ml), DFO (100 μM), or the other chelators (25 μM).
A gel-retardation assay was used to measure the interaction between the IRPs and IRE using established techniques (Leibold et al., […]. Proc. Natl. Acad. Sci. USA 85 2171–5; Müllner et al., 1989 Cell 58 373–82). Briefly, after incubation with medium alone (control) or medium containing ferric ammonium citrate (100 μg/ml: Aldrich Ltd., Sydney, Australia) or the chelator. […] cells were washed with ice-cold phosphate-buffered saline (PBS) and lysed at 4° C. in 40 μl of ice-cold Munro extraction buffer (10 mM HEPES, pH 7.6, 3 mM MgCl2, 40 mM KCl, 5% glycerol, 1 MM dithiothreitol and 0.5% Nonidet P-40). After lysis, the samples were then centrifuged at 10,000 rpm for 3 mins at 4° C. to remove nuclei and the supernatant stored at −70° C. Frozen cytoplasmic extracts were thawed on ice and then centrifuged at 15,000 rpm for 10 min at 4° C. The protein concentration of the soluble supernatant was determined using the BioRad protein assay (BioRad Ltd., USA). Samples of cytoplasmic extracts were diluted to a protein concentration of 100 μg/ml in Munro buffer without Nonidet P-40 and 1 μg aliquots were analyzed for IRP by incubation with 0.1 ng (approximately 1×10^5 cpm) of ^32P-labelled pGL66 RNA transcript (Leibold et al., 1988). The riboprobe was transcribed in vitro from linearized plasmid templates using SP6 RNA polymerase in the presence of α-^32P UTP (Dupont, NEN). This latter reaction was performed using the Promega Riboprobe In Vitro Transcription Kit (Promega, Madison, Wis., USA). The probe was subsequently purified on a 6% urea/PAGE gel. To form RNA-protein complexes, cytoplasmic extracts containing 1 μg of protein were incubated for 10 mins at room temperature with the ^32P-labelled riboprobe. Unprotected probe was degraded by incubation with 1 U of RNAse T1 for 10 mins at room temperature. Heparin (Sigma) at a final concentration of 5 mg/ml was then added and incubated with the extract for another 10 min at room temperature to exclude non-specific binding. RNA-protein complexes were analyzed in 6% non-denaturing polyacrylamide gels at 4° C. as described by Konarska et al., 1986, Cell 46 845–55. Gels were dried, covered in plastic film and exposed to Kodak XAR films at −70° C. with an intensifying screen.
An important effect of intracellular Fe depletion using DFO is the activation of RNA-binding activity of the iron regulatory proteins (IRP's) (Hentze et al., 1996, Proc. Natl. Acad. Sci. USA 93 8175–82). […] The present inventors examined the effect of a 20 hr incubation with 311, PIH and the PCIH analogues (25 μM) on IRP-RNA binding activity in SK-N-MC cells. In all experiments, DFO (100 μM) was used as a positive control to deplete cells of Fe and increase IRP-RNA binding activity. In contrast, ferric ammonium citrate (FAC: 100 μg/ml) was used to donate Fe to cells and reduce IRP-RNA binding.

[2] = tested on: 59Fe-loaded reticulocytes; assay: mobilisation of 59Fe from 59Fe-loaded reticulocytes (mitochondrial Fe overload model); format: cell-based, rabbit
Experimental: (§1) FIG. 7. The effect of reincubation time with the Fe chelators on ^59Fe mobilization from ^59Fe-loaded reticulocytes. The cells were labelled with ^59Fe-transferrin (3.75 μM) in the presence of the heme synthesis inhibitor, succinylacetone (1 mM), and incubated with the cells for 1 h at 37° C. The ^59Fe-labelled reticulocytes were then incubated with the chelators (200 μM) for 15–240 min at 37° C. The results are Mean±SD (3 determinations) in a typical experiment of three performed.
as §1, with “9.” for “7.”, “chelator concentration” for “reincubation time with the Fe chelators”, “(10–200” for “(200”
Reticulocytosis was induced by standard procedures (Richardson, D. R., Ponka, P and Vyoral, D (1996) Blood 87, 3477–3488) in New Zealand white rabbits by repeated phlebotomy by cardiac puncture using a protocol approved by the McGill University Animal Care Committee. Reticulocytes were identified based on staining with new methylene blue, and cell counts were determined using an improved Neubauer counting chamber.
Reticulocytes were obtained from chronically bled rabbits as described above and were incubated with 1 mM succinylacetone (SA: Sigma) to inhibit heme synthesis. After a 15 min preincubation in the presence of SA, ^59Fe-Tf ([…]) was added and incubated with the cells for 1 H at 37° C. with shaking. After this incubation the reticulocytes were washed three times with ice-cold PBS to remove non-specifically bound ^59Fe-Tf. The washed ^59Fe-labelled reticulocytes (30–35 μL) were incubated in buffered salt solution (250 μL final volume) with the apochelators. The SA was present in all incubations with the chelators to prevent the utilization of non-heme ^59Fe for heme synthesis. After the incubation, ^59Fe was measured both in washed reticulocytes and in the medium, and the percentage of ^59Fe mobilized from the reticulocytes was then calculated.

neuroblastoma (NB) = conditions: cited from earlier work
[3] = tested on: SK-N-MC neuroepithelioma cells; assay: 59Fe release from prelabelled cells (iron efflux); format: cell-based, human; conditions: chelators 0.5–50 μM, 'most effective' refers to concentrations up to 10 μM
[4] = tested on: SK-N-MC neuroepithelioma cells; assay: internalized 59Fe uptake from 59Fe-transferrin; format: cell-based, human; conditions: chelators 0.5–50 μM, 3 hr, 'most effective' refers to concentrations up to 10 μM

IRP-RNA binding activity compared to the control (FIG. 5) [1]: marked increase
SMILES: O=C(NN=Cc1c(O)ccc2ccccc12)c1ccncc1 [Chelator 311, 2-hydroxy-1-naphthylaldehyde isonicotinoyl hydrazone, reference compound]

SMILES: CC(=O)N(O)CCCCCNC(=O)CCC(=O)N(O)CCCCCNC(=O)CCC(=O)N(O)CCCCCN [DFO, desferrioxamine, reference compound]
IRP-RNA binding activity compared to the control (FIG. 5) [1]: increase | effect on mobilizing 59Fe from 59Fe-loaded reticulocytes at high concentrations ([2]; high concentrations up to 5 mM, activity similar to control medium): little effect | decrease in bone infiltration of tumor cells (neuroblastoma (NB); 7 of 9 patients with neuroblastoma, 8 hr intravenous infusion): > 50% | decrease in tumor size (neuroblastoma (NB); in 1 patient with neuroblastoma): 48%

IRP-RNA binding activity compared to the control (FIG. 5) [1]: decreased
SMILES: O=C(NN=Cc1ccco1)c1ccncc1 [FIH, 2furoylcarboxaldehyde isonicotinoyl hydrazone]
cellular 59Fe released from 59Fe-loaded reticulocytes, 1 h reincubation (FIG. 9) ([2]; chelator concentration 200 μM (range 10–200 μM), reincubated 1 h at 37° C., 3 determinations): very low activity | cellular 59Fe mobilized from 59Fe-loaded reticulocytes after 240 min ([2]; chelators 200 μM, 240 min of incubation, FIG. 7): 4%

IRP-RNA binding activity compared to the control (FIG. 5) [1]: marked increase
SMILES: O=C(NN=Cc1ccccn1)c1ccccc1 [PCBH, 2-pyridylcarboxaldehyde benzoyl hydrazone]

IRP-RNA binding activity compared to the control (FIG. 5) [1]: marked increase
SMILES: O=C(NN=Cc1ccccn1)c1cccs1 [PCTH, 2-pyridylcarboxaldehyde 2-thiophenecarboxyl hydrazone]
efficacy at mobilizing 59Fe as a function of chelator concentration (FIG. 3A) [3]: most effective chelators | efficacy at preventing 59Fe uptake from 59Fe-Tf as a function of chelator concentration (FIG. 3B) [4]: most effective chelators
